From PubChem BioAssay AID248 (DTP/NCI, 2004) come the findings set out here.

This assay deals with L1210 leukemia ip in BDF1 mice, survival T/C. Briefly: NCI In Vivo Anticancer Drug Screen. Data for tumor model L1210 Leukemia (intraperitoneal) in B6D2F1 (BDF1) mice. The conditions noted are these: endpoint: mean survival time, higher = longer survival. An outline of the steps:
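Tumor was transplanted into mice, which were then dosed with test compound or vehicle alone. Survival was recorded for each group, and the treated figure was expressed relative to the control figure.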

Setting [1] is: dose: 150.0 mg/kg/injection, schedule: Q01DX001 (ip), vehicle: saline.
Where [2] appears, read: dose: 100.0 mg/kg/injection, schedule: Q01DX009 (ip), vehicle: saline.
[3] abbreviates: dose: 100.0 mg/kg/injection, schedule: Q04DX003 (ip), vehicle: saline.
The mark [4] stands for this setting: dose: 100.0 mg/kg/injection, schedule: Q01DX001 (ip), vehicle: saline.
Setting [5] is: dose: 100.0 mg/kg/injection, schedule: Q01DX001 (ip), vehicle: saline with Tween-80.
[6] abbreviates: dose: 200.0 mg/kg/injection, schedule: Q01DX001 (ip), vehicle: saline with Tween-80.
[7] abbreviates: dose: 100.0 mg/kg/injection, schedule: Q04DX003 (ip), vehicle: Klucel (hydroxypropylcellulose) (HPC).
[8] abbreviates: dose: 200.0 mg/kg/injection, schedule: Q04DX003 (ip), vehicle: Klucel (hydroxypropylcellulose) (HPC).
Setting [9] is: dose: 400.0 mg/kg/injection, schedule: Q04DX003 (ip), vehicle: Klucel (hydroxypropylcellulose) (HPC).
[10] abbreviates: dose: 50.0 mg/kg/injection, schedule: Q01DX001 (ip), vehicle: other.
Where [11] appears, read: dose: 100.0 mg/kg/injection, schedule: Q01DX001 (ip), vehicle: other.
Setting [12] is: dose: 200.0 mg/kg/injection, schedule: Q01DX001 (ip), vehicle: other.

Several values for one entry are separate records, joined by “and”; a condition that tells them apart may be missing. Equal entries are not always repeated. Toxic doses and inconclusive results are not listed.

For the molecule `O=c1[nH]c(Cc2ccc([N+](=O)[O-])cc2)c(Br)c(=O)[nH]1`, the T/C reads like this: (dose: 50.0 mg/kg/injection, schedule: Q01DX001 (ip), vehicle: Klucel (hydroxypropylcellulose) (HPC)) 103 % of control; (dose: 100.0 mg/kg/injection, schedule: Q01DX001 (ip), vehicle: Klucel (hydroxypropylcellulose) (HPC)) 92 % of control; (dose: 200.0 mg/kg/injection, schedule: Q01DX001 (ip), vehicle: Klucel (hydroxypropylcellulose) (HPC)) 92 % of control.

For the molecule `CCOc1ccc([N+](=O)[O-])cc1N(C)C(C)=O`, the T/C (dose: 75.0 mg/kg/injection, schedule: Q01DX001 (ip), vehicle: saline) was 102 % of control; the T/C under setting [1] is 102 % of control; the T/C (dose: 300.0 mg/kg/injection, schedule: Q01DX001 (ip), vehicle: saline) is 107 % of control.

Regarding `CC(=O)OCc1ccccn1`, the T/C under setting [2] was 97 % of control; the T/C under setting [3] was 94 % of control; the T/C (dose: 200.0 mg/kg/injection, schedule: Q01DX009 (ip), vehicle: saline) is 97 % of control; the T/C (dose: 200.0 mg/kg/injection, schedule: Q04DX003 (ip), vehicle: saline) was 99 % of control; the T/C (dose: 400.0 mg/kg/injection, schedule: Q04DX003 (ip), vehicle: saline) is 93 % of control.

Regarding `CCCc1nc2c(c(=O)n(C)c(=O)n2C)n1C`, the T/C (dose: 45.0 mg/kg/injection, schedule: Q01DX001 (ip), vehicle: saline) is 97 % of control and 98 % of control; the T/C (dose: 67.0 mg/kg/injection, schedule: Q01DX001 (ip), vehicle: saline) was 97 % of control and 103 % of control; the T/C under setting [4] was 94 % of control and 101 % of control; the T/C under setting [1] is 98 % of control and 101 % of control.

As to `O=S(=O)(/N=C1C=C(N2CCOCC2)/C(=N/S(=O)(=O)c2ccccc2)C=C/1N1CCOCC1)c1ccccc1`, the T/C is, setting by setting: (dose: 75.0 mg/kg/injection, schedule: Q04DX003 (ip), vehicle: Klucel (hydroxypropylcellulose) (HPC)) 97 % of control; (dose: 150.0 mg/kg/injection, schedule: Q04DX003 (ip), vehicle: Klucel (hydroxypropylcellulose) (HPC)) 89 % of control; (dose: 300.0 mg/kg/injection, schedule: Q04DX003 (ip), vehicle: Klucel (hydroxypropylcellulose) (HPC)) 100 % of control.

For the molecule `O=C(O)CNc1cccnc1`, the T/C is, setting by setting: (dose: 25.0 mg/kg/injection, schedule: Q01DX009 (ip), vehicle: Klucel (hydroxypropylcellulose) (HPC)) 95 % of control; (dose: 50.0 mg/kg/injection, schedule: Q01DX009 (ip), vehicle: Klucel (hydroxypropylcellulose) (HPC)) 100 % of control; (dose: 100.0 mg/kg/injection, schedule: Q01DX009 (ip), vehicle: Klucel (hydroxypropylcellulose) (HPC)) 101 % of control.

Regarding `O=C(NC(=S)Nc1cccc(C(F)(F)F)c1)c1cc([N+](=O)[O-])cc([N+](=O)[O-])c1`, the T/C was 93 % of control under setting [5]; 89 % of control (dose: 100.0 mg/kg/injection, schedule: Q01DX009 (ip), vehicle: saline with Tween-80); 101 % of control (dose: 100.0 mg/kg/injection, schedule: Q04DX002 (ip), vehicle: saline with Tween-80); 98 % of control under setting [6]; 87 % of control and 89 % of control (dose: 200.0 mg/kg/injection, schedule: Q01DX009 (ip), vehicle: saline with Tween-80); 94 % of control (dose: 200.0 mg/kg/injection, schedule: Q04DX002 (ip), vehicle: saline with Tween-80). The T/C (dose: 400.0 mg/kg/injection, schedule: Q04DX002 (ip), vehicle: saline with Tween-80) is 97 % of control.

For `O=C(Cl)c1ccc(C(Cl)(Cl)Cl)cc1`, the T/C under setting [7] was 95 % of control, the T/C under setting [8] was 111 % of control and the T/C under setting [9] was 104 % of control.

For the molecule `O=S(=O)(Nc1ccccc1)c1ccc2c(Cl)cc(S(=O)(=O)Nc3ccccc3)cc2c1`, the T/C is 93 % of control under setting [5]; 93 % of control under setting [6]; 91 % of control (dose: 400.0 mg/kg/injection, schedule: Q01DX001 (ip), vehicle: saline with Tween-80).

As for `O=C(OOC(=O)c1ccccc1)c1ccccc1`, the T/C under setting [10] was 96 % of control; the T/C under setting [11] was 94 % of control; the T/C under setting [12] is 102 % of control; the T/C (dose: 400.0 mg/kg/injection, schedule: Q01DX001 (ip), vehicle: other) is 102 % of control.

For the molecule `C[N+](C)(CCOC(=O)C1C2CC3OC(=O)C1C3C2)Cc1ccccc1` (stereo not drawn), the T/C under setting [3] is 101 % of control.

With `CCOC(=O)c1cnc(C)nc1Nc1ccccc1I`, the T/C under setting [7] is 106 % of control, the T/C under setting [8] was 97 % of control and the T/C under setting [9] is 101 % of control.

For the molecule `CN1c2ccccc2C=C(C(=O)c2ccccc2)C1c1ccccc1` (stereo not drawn), the T/C is 100 % of control (dose: 50.0 mg/kg/injection, schedule: Q01DX001 (ip), vehicle: saline); 102 % of control under setting [4]; 97 % of control (dose: 200.0 mg/kg/injection, schedule: Q01DX001 (ip), vehicle: saline).

As to `COc1ccc(C(=O)c2no[n+]([O-])c2C(=O)c2ccc(OC)cc2)cc1`, the T/C is, setting by setting: (dose: 100.0 mg/kg/injection, schedule: Q04DX003 (ip), vehicle: saline with Tween-80) 90 % of control; (dose: 200.0 mg/kg/injection, schedule: Q04DX003 (ip), vehicle: saline with Tween-80) 94 % of control.

As to `c1ccc(CN2CCNCC2)cc1`, the T/C runs as follows: (dose: 6.25 mg/kg/injection, schedule: Q01DX009 (ip), vehicle: saline) 93 % of control; (dose: 12.5 mg/kg/injection, schedule: Q01DX009 (ip), vehicle: saline) 93 % of control; (dose: 25.0 mg/kg/injection, schedule: Q01DX009 (ip), vehicle: saline) 94 % of control.

In the case of `O=C/C=C/C=C/C=C/C=C/C=C\c1ccccc1`, the T/C is 92 % of control (dose: 75.0 mg/kg/injection, schedule: Q01DX001 (ip), vehicle: other); 96 % of control (dose: 150.0 mg/kg/injection, schedule: Q01DX001 (ip), vehicle: other); 100 % of control (dose: 300.0 mg/kg/injection, schedule: Q01DX001 (ip), vehicle: other).

With `CCCCC(C=NCC(CCCC)(CCN(C)C)c1cccc2ccccc12)(CCN(C)C)c1cccc2ccccc12` (stereo not drawn), the T/C reads like this: (dose: 6.25 mg/kg/injection, schedule: Q04DX002 (ip), vehicle: Klucel (hydroxypropylcellulose) (HPC)) 89 % of control; (dose: 12.5 mg/kg/injection, schedule: Q04DX002 (ip), vehicle: Klucel (hydroxypropylcellulose) (HPC)) 89 % of control; (dose: 25.0 mg/kg/injection, schedule: Q04DX002 (ip), vehicle: Klucel (hydroxypropylcellulose) (HPC)) 92 % of control.

For the molecule `COc1ccccc1OCCOCCN(C/C=C(\C)CCC=C(C)C)C/C=C(\C)CCC=C(C)C`, the T/C is, setting by setting: (dose: 50.0 mg/kg/injection, schedule: Q01DX009 (ip), vehicle: saline) 100 % of control; under setting [2], 96 % of control; under setting [7], 102 % of control; under setting [8], 98 % of control.

With `O=C(O/C(=N\N1N=NC(c2ccccc2)C1c1ccccc1)c1ccccc1)c1ccccc1` (stereo not drawn), the T/C (dose: 100.0 mg/kg/injection, schedule: Q01DX001 (ip), vehicle: carboxymethylcellulose (CMC)) was 87 % of control; the T/C (dose: 200.0 mg/kg/injection, schedule: Q01DX001 (ip), vehicle: carboxymethylcellulose (CMC)) was 89 % of control; the T/C (dose: 400.0 mg/kg/injection, schedule: Q01DX001 (ip), vehicle: carboxymethylcellulose (CMC)) was 89 % of control.

On to `Nc1nc(N)c2nc(CNc3ccc(C(=O)NC(CCC(=O)O)C(=O)O)nc3)cnc2n1` (stereo not drawn), for which the T/C was 169 % of control (dose: 0.44 mg/kg/injection, schedule: Q01DX009 (ip), vehicle: Klucel (hydroxypropylcellulose) (HPC)); 168 % of control (dose: 0.66 mg/kg/injection, schedule: Q01DX009 (ip), vehicle: Klucel (hydroxypropylcellulose) (HPC)); 119 % of control (dose: 75.0 micrograms/kg/injection, schedule: Q01DX009 (ip), vehicle: Klucel (hydroxypropylcellulose) (HPC)); 150 % of control (dose: 100.0 micrograms/kg/injection, schedule: Q01DX009 (ip), vehicle: Klucel (hydroxypropylcellulose) (HPC)); 156 % of control and 160 % of control (dose: 150.0 micrograms/kg/injection, schedule: Q01DX009 (ip), vehicle: Klucel (hydroxypropylcellulose) (HPC)); 161 % of control (dose: 220.0 micrograms/kg/injection, schedule: Q01DX009 (ip), vehicle: Klucel (hydroxypropylcellulose) (HPC)). Also, where the note is “dose: 600.0 micrograms/kg/injection, schedule: Q01DX009 (ip), vehicle: Klucel (hydroxypropylcellulose) (HPC)”, the T/C was 102 % of control.

In the case of `COc1ccc(/C=N\NC(=O)CCCC(=O)N/N=C/c2ccc(OC)cc2)cc1`, the T/C by setting is: under setting [10], 93 % of control; under setting [11], 88 % of control; under setting [12], 90 % of control.
